For one test, the target named is T1, NK2 receptor (Oryctolagus cuniculus, UniProt P79218).
T1 construct: antagonise the contractile effects of [βAla^8 ]; NKA(4-10) in the rabbit pulmonary artery; from tissue; host or cells: rabbit pulmonary artery
T1 sequence (P79218 1-384): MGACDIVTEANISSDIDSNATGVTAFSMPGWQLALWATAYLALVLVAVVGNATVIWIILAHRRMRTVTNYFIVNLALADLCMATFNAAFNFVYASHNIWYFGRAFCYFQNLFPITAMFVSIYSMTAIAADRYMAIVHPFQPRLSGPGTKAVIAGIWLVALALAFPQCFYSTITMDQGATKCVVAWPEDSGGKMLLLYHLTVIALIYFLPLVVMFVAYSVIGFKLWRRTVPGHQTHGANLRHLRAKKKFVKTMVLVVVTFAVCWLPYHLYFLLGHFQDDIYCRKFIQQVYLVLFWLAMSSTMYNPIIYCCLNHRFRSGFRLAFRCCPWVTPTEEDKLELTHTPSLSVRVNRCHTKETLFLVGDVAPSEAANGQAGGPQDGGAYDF
The test is described as follows: Antagonism of the contractile effects of [βAla^8 ] NKA(4-10) in the rabbit pulmonary artery (Method B). In kind it is cell-based. The settings on record: agonist [βAla^8 ] NKA(4-10); for Kb: read-out: METHOD B (pA2) (converted). How it is done: The NK2 receptor antagonist activity of the compounds of the formula (I) can be tested, in vitro, by testing their ability to antagonise the contractile effects of the selective NK2 receptor agonist [βAla^8 ]NKA(4-10) in the rabbit pulmonary artery, using the method of Patacchini and Maggi, Eur. J. Pharmacol., 236, 31-37 (1993).
(§1) A representative selection of the compounds of the Examples were tested in vitro for their affinity to the human NK2 receptor by testing their ability to compete with [^125 I] NKA for binding to membranes prepared from Chinese hamster ovary cells expressing the cloned human NK2 receptor (Method A) and for their ability to antagonise the contractile effects of [βAla^8 ] NKA(4-10) in the rabbit pulmonary artery (Method B) by the methods described on pages 40 and 41 of the specification.

For the next test, the target named is T2, human NK2 receptor (Homo sapiens, UniProt P21452).
T2 construct: expressed in transfected cells; host or cells: Chinese hamster ovary (CHO) cells, membranes
T2 sequence (P21452 1-398): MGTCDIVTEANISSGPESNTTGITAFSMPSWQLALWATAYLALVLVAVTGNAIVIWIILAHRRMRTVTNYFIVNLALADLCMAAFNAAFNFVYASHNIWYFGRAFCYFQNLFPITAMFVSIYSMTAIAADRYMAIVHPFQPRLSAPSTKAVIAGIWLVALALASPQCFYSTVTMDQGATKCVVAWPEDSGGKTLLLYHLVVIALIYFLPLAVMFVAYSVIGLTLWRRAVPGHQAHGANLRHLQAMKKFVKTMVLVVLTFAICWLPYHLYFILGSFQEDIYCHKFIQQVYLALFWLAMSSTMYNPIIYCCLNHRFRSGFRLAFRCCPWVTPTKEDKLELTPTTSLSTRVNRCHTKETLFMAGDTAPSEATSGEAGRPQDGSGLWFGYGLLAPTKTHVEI
In words: Competition with [^125 I] NKA for binding to membranes from Chinese hamster ovary cells expressing the cloned human NK2 receptor (Method A). The note with it: Chinese hamster ovary cell membranes; for IC50: read-out: METHOD A (pIC50) (converted). As to the method:
The affinity of the compounds of formula (I) and their salts for the human NK2 receptor can be tested in vitro by testing their ability to compete with [^3 H] or [^125 I]NKA (neurokinin A) for binding to membranes prepared from Chinese hamster ovary cells expressing the cloned human NK2 receptor. In this method, washed Chinese hamster ovary cell membranes are prepared as described for the previous method where IM9 cells are used instead. The membranes are incubated (90 min, 25° C.) with [^3 H] NKA and with a range of concentrations of the test compound. Non-specific binding was determined in the presence of 10 μM NKA.
as §1

SMILES strings stand for the structures.

As to `O=C1CCC(CCN2CC(N3CC[S+]([O-])CC3)C2)(c2ccc(F)c(F)c2)CN1Cc1ccccc1` (stereo not drawn) [Example 14], the Kb on NK2 receptor was 12.6 nM. Also, the IC50 at human NK2 receptor is 63.1 nM.
Regarding `O=C1CCC(CCN2CC(C(=O)N3CCCCC3)C2)(c2ccc(Cl)c(Cl)c2)CN1Cc1ccccc1` (stereo not drawn) [Example 31], the Kb on NK2 receptor is 5.01 nM. Besides, the IC50 on human NK2 receptor is 1 nM.
`CC1CCCCC1CN1CC(CCN2CC(N3CCOCC3)C2)(c2ccc(Cl)c(Cl)c2)CCC1=O` (stereo not drawn) [Example 73]: the Kb on NK2 receptor was 1.26 nM. The IC50 at human NK2 receptor is 0.316 nM.
In the same order, the values of `CC(c1ccccc1)N1CC(CCN2CC(N3CCOCC3)C2)(c2ccc(Cl)c(Cl)c2)CCC1=O` (stereo not drawn) [Example 75 (enantiomeric pair A)] are 0.794 nM and 5.01 nM.
For `CS(=O)(=O)N1CCN(C2CN(CCC3(c4ccc(Cl)cc4)CCC(=O)N(CC4CCCCC4)C3)C2)CC1` (stereo not drawn) [Example 89] the same measures were 2.51 nM and 6.31 nM.
For the compound `O=C1CCC(CCN2CC(N3[C@@H]4CC[C@H]3C[C@@H](O)C4)C2)(c2ccc(Cl)c(Cl)c2)CN1Cc1ccccc1` (stereo partly drawn) [Example 104, 1-Benzyl-5-(3,4-dichlorophenyl)-5-(2-[3-(endo-3-hydroxy-8-azabicyolo[3,2,1]oct-8-yl)azetidin-1-yl]ethyl)-2-piperidone], on NK2 receptor, the “METHOD B (pA2)” value is 9.2. For the same compound, the “METHOD A (pIC50)” value on human NK2 receptor turned out to be 8.8.

The values above are taken from patent publication US5968923A, “(Azetidin-1-ylalkyl) lactams as tachykinin antagonists” (Pfizer Inc., priority 1994, dated 1999).
